What all share (type): toxicity, cell-based
Data set [1] relates to Fibroblast. In words: Incucyte cell viability with human fibroblast. Particulars: 10 µM, compound concentration 10 uM.
Data set [2] concerns U2OS. Description: Incucyte cell viability with U2OS. Conditions: human, 10 µM, compound concentration 10 uM.
Data set [3] concerns HEK-293T. In words: Incucyte cell viability with HEK293T. Conditions: human, 10 µM, compound concentration 10 uM.
Setting [4] is: 6 h, replicate number 1, timepoint 6 hours.
[5] abbreviates: 6 h, replicate number 2, timepoint 6 hours.
[6] abbreviates: 12 h, replicate number 1, timepoint 12 hours.
[7] abbreviates: 12 h, replicate number 2, timepoint 12 hours.
[8] abbreviates: 18 h, replicate number 1, timepoint 18 hours.
Where [9] appears, read: 18 h, replicate number 2, timepoint 18 hours.
[10] abbreviates: 24 h, replicate number 1, timepoint 24 hours.
[11] abbreviates: 24 h, replicate number 2, timepoint 24 hours.
Setting [12] is: 0 h, replicate number 1, timepoint 0 hours.
Setting [13] is: 0 h, replicate number 2, timepoint 0 hours.
Note: unitless GR value; below 1 slowed growth and below 0 cell loss.

As for `COc1ccc(NC(=O)c2ccc(-c3ccc(-c4noc(C)n4)cc3C)cc2)cc1OCCN(C)C.Cl`, the “Growth Rate” value in data set [1] (setting [4]) is -0.36; in data set [1] (setting [5]), -0.28; in data set [1] (setting [6]), -0.41; in data set [1] (setting [7]), -0.33; in data set [1] (setting [8]) it was -0.47; in data set [1] (setting [9]) it was -0.48. Besides, the “Growth Rate” value was -0.57 in data set [1] (setting [10]); -0.52 in data set [1] (setting [11]); -0.87 in data set [2] (setting [12]); -1 in data set [2] (setting [13]); -0.71 in data set [2] (setting [4]); -0.36 in data set [2] (setting [6]). The “Growth Rate” value in data set [2] (setting [7]) is 0.51; in data set [2] (setting [8]) it was -0.17; in data set [2] (setting [9]), 0.28; in data set [2] (setting [10]) it was -0.18; in data set [2] (setting [11]) it was 0.14; in data set [3] (setting [13]), -0.89. Moreover, the “Growth Rate” value is listed as -0.88 in data set [3] (setting [4]); -0.73 in data set [3] (setting [5]); -0.65 in data set [3] (setting [6]); -0.38 in data set [3] (setting [7]); -0.53 in data set [3] (setting [8]); -0.31 in data set [3] (setting [9]). The “Growth Rate” value is -0.45 in data set [3] (setting [10]) and -0.35 in data set [3] (setting [11]).

As to `O=C(Nc1cc(-c2ccccc2)nn1-c1ccccc1F)c1ccc([N+](=O)[O-])cc1`, the “Growth Rate” value in data set [1] (setting [4]) is -0.14; in data set [1] (setting [5]), 0.55; in data set [1] (setting [6]), 0.25; in data set [1] (setting [8]), 0.09; in data set [1] (setting [9]) it was 0.95; in data set [1] (setting [10]), -0.11. The “Growth Rate” value in data set [2] (setting [5]) is reported as 0.54; in data set [2] (setting [7]), 0.84; in data set [2] (setting [9]), 0.9; in data set [2] (setting [11]), 0.95; in data set [3] (setting [12]), 0.97; in data set [3] (setting [13]) it was 0.17.

For the molecule `CO[C@H]1CC[C@@H](C(=O)c2ccc3nc4c(cc3c2)CCCO4)CC1`, the “Growth Rate” value in data set [1] (setting [12]) is recorded as 0.96; in data set [1] (setting [5]) it was 0.07; in data set [1] (setting [7]) it was 0.87; in data set [1] (setting [8]), 0.79; in data set [1] (setting [10]), 0.48; in data set [2] (setting [4]) it was -0.12. Also, the “Growth Rate” value in data set [2] (setting [5]) was 0.55; in data set [2] (setting [6]) it was 0.27; in data set [2] (setting [7]), 0.67; in data set [2] (setting [8]), 0.36; in data set [2] (setting [9]) it was 0.74; in data set [2] (setting [10]) it was 0.74. Moreover, the “Growth Rate” value was determined as 0.78 in data set [2] (setting [11]); 0.72 in data set [3] (setting [4]); 0.84 in data set [3] (setting [6]); 0.59 in data set [3] (setting [8]); 0.73 in data set [3] (setting [10]).

For `Cc1c(C(=O)NN2CCCCC2)nn(-c2ccc(Cl)cc2Cl)c1-c1ccc(Cl)cc1` [RIMONABANT], the “Growth Rate” value in data set [1] (setting [13]) is recorded as 0.97; in data set [1] (setting [4]), -0.42; in data set [1] (setting [5]) it was -0.46; in data set [1] (setting [6]), 0.04; in data set [1] (setting [7]), 0; in data set [1] (setting [8]) it was -0.03. For the same molecule, the “Growth Rate” value in data set [1] (setting [9]) is on record as 0.53; in data set [1] (setting [10]), 0.03; in data set [1] (setting [11]) it was 0.42; in data set [2] (setting [12]), 0.12; in data set [2] (setting [13]) it was -1; in data set [2] (setting [9]), 0.98. Besides, the “Growth Rate” value in data set [2] (setting [10]) is 0.8; in data set [3] (setting [12]), 0.19; in data set [3] (setting [13]), -0.01.

Take `CN(c1ncccc1CNc1ccnc(-c2cc3cc(Cl)ccc3[nH]2)n1)S(C)(=O)=O`: the “Growth Rate” value in data set [1] (setting [4]) is listed as -0.63; in data set [1] (setting [5]) it was -0.2; in data set [1] (setting [6]) it was -0.43; in data set [1] (setting [7]), -0.15; in data set [1] (setting [8]), -0.12; in data set [1] (setting [9]), -0.08. Further, the “Growth Rate” value in data set [1] (setting [10]) is 0.15; in data set [1] (setting [11]) it was 0.04; in data set [2] (setting [12]), -0.74; in data set [2] (setting [13]), 1; in data set [2] (setting [4]), 0.59; in data set [2] (setting [6]), 0.52. For the same molecule, the “Growth Rate” value in data set [2] (setting [7]) is on record as 0.71; in data set [2] (setting [8]) it was 0.58; in data set [2] (setting [9]), 0.74; in data set [2] (setting [10]), 0.61; in data set [2] (setting [11]) it was 0.7; in data set [3] (setting [4]) it was -0.71. The “Growth Rate” value is -0.53 in data set [3] (setting [5]); -0.48 in data set [3] (setting [6]); -0.31 in data set [3] (setting [7]); -0.36 in data set [3] (setting [8]); -0.25 in data set [3] (setting [9]); -0.24 in data set [3] (setting [10]). For the same molecule, the “Growth Rate” value in data set [3] (setting [11]) is -0.09.

Regarding `C[C@@H](c1ccc(F)cc1)n1nnc2cnc3ccc(-c4ccc5ocnc5c4)cc3c21`, the “Growth Rate” value is 0.92 in data set [1] (setting [12]); -0.51 in data set [2] (setting [12]); 0.33 in data set [2] (setting [13]); 0.94 in data set [2] (setting [7]); 0.75 in data set [2] (setting [8]); 0.83 in data set [2] (setting [9]). Moreover, the “Growth Rate” value in data set [2] (setting [10]) is 0.51; in data set [2] (setting [11]) it was 0.82; in data set [3] (setting [4]), -0.12; in data set [3] (setting [5]), -0.31; in data set [3] (setting [6]) it was -0.11; in data set [3] (setting [7]), -0.14. The “Growth Rate” value in data set [3] (setting [8]) is given as 0.09; in data set [3] (setting [9]), 0.07; in data set [3] (setting [10]), 0.23; in data set [3] (setting [11]), 0.21.

In the case of `CC(C)COc1ccc(CNC(=O)N(Cc2ccc(F)cc2)C2CCN(C)CC2)cc1` [PIMAVANSERIN], the “Growth Rate” value is listed as 0.97 in data set [1] (setting [4]); -0.26 in data set [1] (setting [5]); 0.37 in data set [1] (setting [6]); -0.05 in data set [1] (setting [7]); 0.14 in data set [1] (setting [8]); 0.27 in data set [1] (setting [10]). Further, the “Growth Rate” value is reported as 0.26 in data set [1] (setting [11]); 0.56 in data set [2] (setting [4]); 0.04 in data set [2] (setting [5]); 0.62 in data set [2] (setting [6]); 0.31 in data set [2] (setting [7]); 0.57 in data set [2] (setting [8]). Further, the “Growth Rate” value in data set [2] (setting [9]) was 0.26; in data set [2] (setting [10]), 0.5; in data set [2] (setting [11]), 0.24; in data set [3] (setting [4]), -0.67; in data set [3] (setting [5]) it was 0.4; in data set [3] (setting [6]) it was -0.29. Besides, the “Growth Rate” value in data set [3] (setting [7]) is recorded as 0.31; in data set [3] (setting [8]), -0.21; in data set [3] (setting [9]), 0.1; in data set [3] (setting [10]) it was -0.29; in data set [3] (setting [11]) it was -0.01.

Take `O=C(O)c1cccc(/C=C2/C[C@@H]3[C@@H](/C=C/[C@H](O)C4CCCCC4)[C@H](O)C[C@@H]3O2)c1`: the “Growth Rate” value in data set [1] (setting [12]) is -0.51; in data set [1] (setting [13]) it was -0.06; in data set [1] (setting [5]), 0.96; in data set [1] (setting [7]) it was 0.77; in data set [1] (setting [11]), 0.89; in data set [2] (setting [13]) it was 0.48. Besides, the “Growth Rate” value in data set [2] (setting [4]) is reported as 0.65; in data set [2] (setting [5]), 0.71; in data set [2] (setting [6]), 0.59; in data set [2] (setting [7]), 0.94; in data set [2] (setting [8]), 0.9; in data set [3] (setting [12]) it was -0.12. Also, the “Growth Rate” value in data set [3] (setting [13]) was -0.26; in data set [3] (setting [8]) it was 0.98; in data set [3] (setting [9]), 1; in data set [3] (setting [10]), 0.9; in data set [3] (setting [11]) it was 0.92.

As to `O=C1c2c(Br)c(Br)c(Br)c(Br)c2C(=O)N1c1ncc[nH]1`, the “Growth Rate” value is -1 in data set [1] (setting [12]); 0.94 in data set [1] (setting [13]); 0.37 in data set [1] (setting [5]); 0.69 in data set [1] (setting [6]); 0.62 in data set [1] (setting [8]); 0.65 in data set [1] (setting [10]). For the same molecule, the “Growth Rate” value is given as -1 in data set [2] (setting [13]); 0.46 in data set [2] (setting [4]); 0.89 in data set [2] (setting [7]); 0.89 in data set [2] (setting [8]); 1 in data set [2] (setting [9]); 0.98 in data set [2] (setting [10]). Also, the “Growth Rate” value stood at 0.24 in data set [3] (setting [12]); 0.87 in data set [3] (setting [13]); 0.45 in data set [3] (setting [5]); 0.51 in data set [3] (setting [6]); 0.67 in data set [3] (setting [8]); 0.91 in data set [3] (setting [10]).

The record behind these values is ChEMBL document CHEMBL5058564, “EUbOPEN Chemogenomics Library 2 (Incucyte)” (2022).
